In patent US20260159561A1 (MyNeuroCure Oy, priority 2017, published 2026):

Tests used:
[1] = tested on: ER stressed SCG neurons; assay: Survival of tunicamycin ER-stressed SCG neurons microinjected with recombinant protein; type: cell-based, mouse; conditions: recombinant protein microinjected into the cytoplasm; tunicamycin 2 μM; counted after 3 days
Procedure: (§1) Non-neuronal cells were removed by extensive preplating. Almost pure neurons were cultured in polyornithine/laminin (Sigma)-coated 35-mm plastic dishes in the small-size standard microislands in the Neurobasal medium and B27 supplement (Invitrogen/Gibco) in the presence of 30 ng/ml mouse nerve growth factor (NGF) (Promega) for 5-6 days. NGF was deprived by extensive washing and addition of the function-blocking anti-NGF antibodies (Roche). The neurons were pressure-microinjected with special neuronal microinjection equipment (Hellman et al., 2011; Hamner et al., 2001; Lindholm et al., 2002; Sun et al., 2001; Yu et al., 2003)(Sun et al., 2001; Sun et al., 2003). For the survival assay, all neurons on the microislands were counted in the beginning (initial number) and the end (three days) of the experiment and expressed as % of initial.
(§2) Microinjection of the sympathetic neurons was performed as described earlier (Yu, L. Y., Jokitalo, E., Sun, Y. F., Mehlen, P., Lindholm, D., Saarma, M., and Arumäe, U. (2003) J. Cell Biol. 163, 987-997). […] Next day tunicamycin (2 μM) was added, and after 3 days the living fluorescent neurons were counted. Living fluorescent (EGFP-expressing or Dextran Texas Red-containing) neurons were “blindly” counted three days later and expressed as percent of initial living fluorescent neurons counted 2-3 hours after microinjection. […]

[2] = tested on: Huntington's disease rat model (quinolinic acid); assay: Quinolinic acid Huntington's disease rat model, rotarod and grip strength; type: in vivo; conditions: single intrastriatal injection 2 weeks after QA, equimolar to CDNF 10 micrograms, vs QA+PBS
Description: Adult Wistar rats received a single, unilateral intrastriatal injection of quinolinic acid (QA) 225 nmol into coordinates: A/P+0.7; L/M+2.8; D/V −6.0. Quinolinic acid is a toxin that induces striatal neuron death by an excitotoxic process. […] Rats were randomized to groups before the treatments started. Rotarod and grip strength tests were done weekly.

[3] = tested on: rats in the 6-OHDA model of Parkinson's disease; conditions: applied before the toxin; cited from earlier work
[4] = tested on: ER stressed superior cervical ganglia (SCG) sympathetic neurons; assay: Survival of tunicamycin ER-stressed SCG neurons microinjected with expression plasmids; type: cell-based, mouse; conditions: expressed from microinjected plasmids; tunicamycin 2 μM; counted after three days
Procedure: as §1, §2

[5] = tested on: rat PC6 cells; assay: Internalization of iodinated proteins into PC6.3 cells; type: cell-based; conditions: PC6 cells with or without thapsigargin, 90 min, acid wash
Procedure: Rat PC6.3 pheochromocytoma cells were grown on the 24 well plate in DMEM culture with 10% FCS and 5% horse serum. […] 90 min. The cells were put on ice, washed once with 0.5 ml of the ice cold media. Then cells were transferred to Eppendorf tubes and washed once with 0.2M acetic acid, 0.5M NaCl, pH 2.8. After centrifugation at 1000 g for 10 min cells were dissolved in 0.5 ml of 0.5 N NaOH and counted in Wizard 3 1480 Automatic Gamma Counter (Perkin Elmer, Wallac).

[6] = tested on: E14 dopamine neurons; assay: Internalization of iodinated proteins into dopamine neurons; type: cell-based, mouse; conditions: 30,000 cpm iodinated protein, 37° C., 2 hr, acid wash
Procedure: 2 hr. The cells were transferred to ice and washed once with 0.5 ml of the ice cold media. Then cells were transferred to Eppendorf tubes and washed at 4° C. once with 0.2M acetic acid, 0.5M NaCl, pH 2.8.

| Molecule | living fluorescent neurons, percentage of initial neurons [1] | rotarod latency to fall (motor behavior) [2] | 6-OHDA-induced behavioral and histological symptoms [3] | living fluorescent neurons, percentage of initial neurons [4] | radioactivity inside the cells (cell membrane penetration) [5] | radioactivity inside the cells (internalization) [6] |
| --- | --- | --- | --- | --- | --- | --- |
| CDNF: cerebral dopamine neurotrophic factor; mature human CDNF, SEQ ID NO: 7, 161 amino acids | rescue ER stressed SCG neurons | not CDNF improved motor behavior statistically significantly | potently prevent the 6-OHDA-induced behavioral and histological symptoms | rescue ER stressed superior cervical ganglia (SCG) sympathetic neurons |  |  |
| ^125I-CDNF: full length CDNF iodinated with 125I-Na using the lactoperoxidase method |  |  |  |  | not full length iodinated CDNF penetrate cell membrane | not ^125I-CDNF is efficiently internalized |
| MANF: mesencephalic astrocyte-derived neurotrophic factor; mature human MANF, SEQ ID NO: 9, 158 amino acids (protein, listed as Homo sapiens) LRPGDCEVCISYLGRFYQDLKDRDVTFSPATIENELIKFCREARGKENRLCYYIGATDDAATKIINEVSKPLAHHIPVEKICEKLKKKDSQICELKYDKQIDLSTVDLKKLRVKELKKILDDWGETCKGCAEKSDYIRKINELMPKYAPKAASARTDL |  |  | potently prevent the 6-OHDA-induced behavioral and histological symptoms |  |  |  |
